Measurements: patent US10233221B2, “Peptide having eight amino acid sequences derived from cage and retaining anticancer activity and activity to promote anticancer drug sensitivity of anticancer drug-resistant cancer cells” (L-Base Co., Ltd., priority 2014, dated 2019)
Where no end group is shown, it is not given here. [ ]: non-standard residue; d: D form. The star is where a group is joined. FITC = O=C1OC2(c3ccc(O)cc3Oc3cc(O)ccc32)c2ccc(NC(=S)*)cc21

Legend:
[1] = tested on: Celastrol-resistant liver cancer cell line (SNU387^R); assay: Western blotting of PARP and FAK cleavage; type: cell-based; details: 1 μM peptide 24 hours, then 1 μM and 10 μM Celastrol and Taxol 1 hour, vs cell lines without peptide
Description: (§1) In order to examine the effects of AQTGTGKT (SEQ ID NO: 1 synthesized from L-amino acid) or D-AQTGTGKT (SEQ ID NO: 1 synthesized from D-amino acid) peptides on the anticancer drug resistance of cancer cells, MTT assay and western blotting were conducted by a known method.
(§2) Liver cancer cell line (SNU387^R) and melanoma cell line (Malme3M^R), which show resistance to Celastrol as an anticancer drug, were transfected with 1 μM AQTGTGKT (SEQ ID NO: 1 synthesized from L-amino acid) or D-AQTGTGKT (SEQ ID NO: 1 synthesized from D-amino acid) peptide for 24 hours, respectively, and then treated with 1 μM and 10 μM Celastrol and Taxol for 1 hour.

[2] = tested on: Celastrol-resistant melanoma cell line (Malme3M^R); assay: Western blotting of PARP and FAK cleavage; type: cell-based; details: 1 μM peptide 24 hours, then 1 μM and 10 μM Celastrol and Taxol 1 hour, vs cell lines without peptide
Description: as §1, §2

[3] = tested on: GSK3β ser9 and Cyclin D1 in Malme3M^R; assay: Western blotting of GSK3β ser9 and Cyclin D1; type: cell-based
Description: (§3) In order to examine the intercellular migration and action mechanisms of AQTGTGKT (SEQ ID NO: 1 synthesized from L-amino acid) and D-AQTGTGKT (SEQ ID NO: 1 synthesized from D-amino acid) peptides, each of the peptides was prepared in a form of being conjugated to fluorescein isothiocyanate (FITC), and used to perform transfection, immunofluorescence, immunoprecipitation, and western blotting by known methods.
(§4) The same cell lines were transfected with AQTGTGKT (SEQ ID NO: 1 synthesized from L-amino acid) or FITC-AQTGTGKT (FITC-SEQ ID NO: 1) peptide, and then subjected to immunoprecipitation and western blotting.
(§5) In addition, the cell lines were transfected with AQTGTGKT (SEQ ID NO: 1 synthesized from L-amino acid) or D-AQTGTGKT (SEQ ID NO: 1 synthesized from D-amino acid) peptide, and then subjected to immunoprecipitation and western blotting.

[4] = tested on: GSK3β ser9 and Cyclin D1 in SNU387^R; assay: Western blotting of GSK3β ser9 and Cyclin D1; type: cell-based
Description: as §3, §4, §5

[5] = biological target: T1, CAGE and GSK3β proteins in Malme3M^R (Homo sapiens, UniProt Q86TM3); assay: Immunoprecipitation of CAGE and GSK3β; type: cell-based
T1 construct: Celastrol-resistant liver cancer cell line (SNU387^R) and melanoma cell line (Malme3M^R) having high expression of CAGE; endogenous in cells; host or cells: Malme3M^R (Celastrol-resistant melanoma cell line)
Description: as §3, §5

[6] = biological target: T2, CAGE and GSK3β proteins in SNU387^R (Homo sapiens, UniProt Q86TM3); assay: Immunoprecipitation of CAGE and GSK3β; type: cell-based
T2 construct: Celastrol-resistant liver cancer cell line (SNU387^R) and melanoma cell line (Malme3M^R) having high expression of CAGE; endogenous in cells; host or cells: SNU387^R (Celastrol-resistant liver cancer cell line)
Description: as §3, §5

Malme3M^R tumor = assay: Tumorigenicity of anticancer drug-resistant cell line in nude mouse; type: in vivo; details: 10 μg/mouse tail vein, 6 times every 3 days
Description: In order to examine that the AQTGTGKT (SEQ ID NO: 1 synthesized from L-amino acid) is a tumor-specific peptide, experiments were carried out by a known method using an anticancer drug-resistant cell line and an immune-deficient mouse.
Celastrol-resistant melanoma cell line (Malme3M^R) having high expression of CAGE was injected into the side of a nude mouse at 1×10^6 cells. When a tumor was grown to have a measurable tumor size, the tumor size was measured using a digital gauge at regular intervals, and the tumor size was calculated using a known formula (widest length×shortest length×0.5).
After the tumor was induced by the above method, AQTGTGKT (SEQ ID NO: 1 synthesized from L-amino acid) peptide (10 μg/mouse) was injected into the tail vein alone or in combination with Celastrol or Taxol anticancer drug in a total of 6 times every 3 days for 2 weeks, while the size of the tumor was measured.

[7] = tested on: CAGE-GSK3β, GSK3β ser9, cyclin D1, MDR1 in tumor tissues; assay: Western blotting and immunoprecipitation of tumor tissues; type: in vivo, nude mouse
Description: After the above experiments, the protein expression and activation were examined. The tumor tissues were disrupted by liquid nitrogen according to a known method, reacted with a dissolution buffer on ice for 30 minutes, and centrifuged at 13,000 rpm for 15 minutes, and then the supernatant solution was collected as a protein sample. Thereafter, this protein sample was subjected to western blotting and immunoprecipitation to examine the protein expression and activation and the interconnection of proteins.

[8] = tested on: Malme3M^R tumor metastasis; assay: Lung metastasis of anticancer drug-resistant cell line in nude mouse; type: in vivo; details: 10 μg/mouse tail vein, 6 times every 3 days from day 4
Description: In order to examine the effect of AQTGTGKT (SEQ ID NO: 1 synthesized from L-amino acid) peptide on tumor metastatic ability of an anticancer drug-resistant cell line, long metastasis was carried out using the anticancer drug-resistant cell line and an immunodeficient mouse by a known method.
Celastrol-resistant melanoma cell line (Malme3M^R) having high expression of CAGE was injected into the tail vein of a nude mouse at 1×10^6 cells, and then the metastasis of a tumor into the lung was induced for 2-3 weeks. From day 4 after tumor cell injection, AQTGTGKT (SEQ ID NO: 1 synthesized from L-amino acid) peptide (10 μg/mouse) was injected into the tail vein in a total of 6 times every 3 days, and the lung tissue was excised and the number of tumor nodules was measured by a known method.

[9] = tested on: CAGE-GSK3β, GSK3β ser9, Cyclin D1 in lung tissues; assay: Immunoprecipitation and western blotting of lung tissues; type: in vivo, nude mouse
Source text: After the protein was collected from the lung tissues by a conventional method, the protein expression and activation patterns were examined through immunoprecipitation and western blotting.

[10] = tested on: Celastrol-resistant melanoma cell line (Malme3MR); assay: Wound-healing migration assay; type: cell-based; details: 24-48 hours
Description: (§6) In order to examine the effects of AQTGTGKT (SEQ ID NO: 1 synthesized from L-amino acid) and D-AQTGTGKT (SEQ ID NO: 1 synthesized from D-amino acid) peptides on the migration, invasiveness, and angiogenesis inducing ability of anticancer drug-resistant cell line, the invasion assay, wound-healing migration assay, and intravital microscopy were carried out by conventional methods using Celastrol-resistant melanoma cell line (Malme3M^R).
(§7) Celastrol-resistant melanoma cell line (Malme3MR) or Taxol-resistant melanoma cell line (Malme3M^R-Taxol) was cultured in 24-well culture dishes, and wounded using a 1 ml tip by a conventional method, and then the migrating cells were counted for 24-48 hours.

[11] = tested on: Taxol-resistant melanoma cell line (Malme3M^R-Taxol); assay: Wound-healing migration assay; type: cell-based; details: 24-48 hours
Description: as §6, §7

[12] = tested on: angiogenesis inducing ability of Malme3M^R; assay: Angiogenesis, intravital microscopy; type: in vivo; details: conditioned media of treated Malme3M^R mixed with Matrigel, injected into BALB/C mice
Description: as §6
After Celastrol-resistant melanoma cell line (Malme3M^R) was treated with AQTGTGKT (SEQ ID NO: 1 synthesized from L-amino acid) or D-AQTGTGKT (SEQ ID NO: 1 synthesized from D-amino acid) peptide, the obtained conditioned media were mixed with Matrigel and then injected into BALB/C mice, and then the mice were injected with FITC-dextran to examine the effect on angiogenesis using intravital microscopy.

Malme3M^R = assay: Intracellular migration, fluorescent microscope; type: cell-based; details: 24 hours after transfection
Description: as §3
(§8) Celastrol-resistant liver cancer cell line (SNU387^R) and melanoma cell line (Malme3M^R) having high expression of CAGE were transfected with FITC-AQTGTGKT (FITC-SEQ ID NO: 1) peptide, and after 24 hours, the cell lines were examined under a fluorescent microscope.

SNU387^R = assay: Intracellular migration, fluorescent microscope; type: cell-based; details: 24 hours after transfection
Description: as §3, §8

Malme3M^R tumor tissues = assay: Tumor-specific migration (in vivo homing); set-up: species or system immunodeficient mice; details: 12 hours after tail vein injection; in vivo imaging of extracted tissues
Description: In order to examine that the AQTGTGKT (SEQ ID NO: 1 synthesized from L-amino acid) peptide is a tumor-specific peptide, experiments were carried out by a known method using FITC-AQTGTGKT (FITC-SEQ ID NO: 1) and anticancer drug-resistant cell lines and immunodeficient mice.
Celastrol-resistant melanoma cell line (Malme3M^R) having high expression of CAGE was injected into immunodeficient mice by a known method to induce tumors, and then 12 hours after FITC-AQTGTGKT (FITC-SEQ ID NO: 1) was injected into the tail vein, normal tissues (brain, heart, spleen, Liver, lung, etc.) and tumor tissues were extracted and examined using a small in vivo imaging system.

T2 sequence (Q86TM3 whole entry): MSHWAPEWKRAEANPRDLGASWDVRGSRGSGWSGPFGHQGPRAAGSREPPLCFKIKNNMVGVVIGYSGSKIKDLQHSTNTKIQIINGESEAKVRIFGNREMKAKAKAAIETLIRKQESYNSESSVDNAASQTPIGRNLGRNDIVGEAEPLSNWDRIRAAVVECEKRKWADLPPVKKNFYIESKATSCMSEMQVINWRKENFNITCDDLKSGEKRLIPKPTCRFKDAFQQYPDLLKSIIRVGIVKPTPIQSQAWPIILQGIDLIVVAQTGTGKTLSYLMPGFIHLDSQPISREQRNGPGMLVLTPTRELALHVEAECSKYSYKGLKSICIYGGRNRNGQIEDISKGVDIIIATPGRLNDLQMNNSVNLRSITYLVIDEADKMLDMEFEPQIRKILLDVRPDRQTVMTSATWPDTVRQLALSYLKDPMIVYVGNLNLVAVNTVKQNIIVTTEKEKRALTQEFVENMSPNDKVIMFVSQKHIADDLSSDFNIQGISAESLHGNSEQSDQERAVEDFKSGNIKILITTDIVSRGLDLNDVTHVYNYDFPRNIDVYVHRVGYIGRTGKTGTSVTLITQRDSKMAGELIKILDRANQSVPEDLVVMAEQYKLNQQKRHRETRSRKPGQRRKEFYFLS
T1 sequence (Q86TM3 whole entry): as above

AQTGTGKT (listed as Homo sapiens)
reduced: tumorigenicity (tumor size) (Malme3M^R tumor; alone) | anticancer drug resistance (tumor size) (Malme3M^R tumor; in combination with Celastrol or Taxol) | tumor metastasis (number of lung tumor nodules) [8]
inhibited: dephosphorylation of GSK3β ser9 [3] | expression of Cyclin D1 [3] | dephosphorylation of GSK3β ser9 [4] | expression of Cyclin D1 [4] | interconnection of CAGE and GSK3β proteins [5] | interconnection of CAGE and GSK3β proteins [6] | expression of MDR1 [7] | interconnection of CAGE and GSK3β proteins [7] | dephosphorylation of GSK3β ser9 [9] | expression of Cyclin D1 [9] | interconnection of CAGE and GSK3β proteins [9] | cell migration [10] | cell migration [11]
significantly observed: cleavage of PARP and FAK proteins [1] | cleavage of PARP and FAK proteins [2]
remarkably reduced: angiogenesis inducing ability [12]
reductions: GSK3β ser9 dephosphorylation [7] | cyclin D1 expression [7]

D-AQTGTGKT ([dA][dQ][dT]G[dT]G[dK][dT]; listed as Homo sapiens)
significantly observed: cleavage of PARP and FAK proteins [1] | cleavage of PARP and FAK proteins [2]
remarkably reduced: angiogenesis inducing ability [12]
inhibited: dephosphorylation of GSK3β ser9 [3] | expression of Cyclin D1 [3] | dephosphorylation of GSK3β ser9 [4] | expression of Cyclin D1 [4] | interconnection of CAGE and GSK3β proteins [5] | interconnection of CAGE and GSK3β proteins [6] | cell migration [10] | cell migration [11]

FITC-AQTGTGKT ({FITC}-AQTGTGKT; listed as Homo sapiens) [AQTGTGKT peptide conjugated to fluorescein isothiocyanate (FITC)]
migrated specifically to tumor tissues: migration to tumor tissues vs normal tissues (Malme3M^R tumor tissues)
inhibited: dephosphorylation of GSK3β ser9 [3] | expression of Cyclin D1 [3] | dephosphorylation of GSK3β ser9 [4] | expression of Cyclin D1 [4]
migrated into the cells: migration of peptide into the cells (Malme3M^R) | migration of peptide into the cells (SNU387^R)
